Results taken from ChEMBL document CHEMBL3885861, “Open TG-GATES”.

Organism: Rattus norvegicus
Experiment: Open TG-GATES - Regimen: Single
Format: toxicity, organism-based, Sprague-Dawley
Design: regimen Single, gender Male, age 6 weeks
Details: in vivo, po, 30 mg/kg, route gavage, dose level High; for APTT / Bas / Eos / Fbg / Hb / Ht / Lym / MCH / MCHC / MCV / Mono / Neu / PT / Plat / RBC / Ret / WBC: tissue Blood; for KIDNEY_L / KIDNEY_R / KIDNEY_TOTAL: tissue Kidney; for LIVER: tissue Liver; for A/G / ALP / ALT / AST / BUN / CRE / Ca / Cl / DBIL / GLC / IP / K / LDH / Na / PL / RALB / TBIL / TC / TG / TP / gamma-GTP: tissue Plasma

`C[C@H]1C(=O)O[C@@H]2CCN3CC=C(COC(=O)[C@](C)(O)[C@]1(C)O)[C@H]23` [MONOCROTALINE] showed a TERMINAL_BW (3 h) of 209.7 g, an APTT (3 h) of 21.1 s and a Bas (3 h) of 0%. The Eos (3 h) was 1.2%, the Fbg (3 h) was 305.4 mg/dL and the Hb (3 h) was 13.2 g/dL. The Ht (3 h) was 38.8%, the Lym (3 h) was 76.4% and the MCH (3 h) was 21.5 pg. It also gave an MCHC (3 h) of 34%, an MCV (3 h) of 63.2 fL and a Mono (3 h) of 2.2%. The Neu (3 h) was 19.6%, the PT (3 h) was 16.2 s and the Plat (3 h) was 119.2 x10_4/uL. It also gave an RBC (3 h) of 615.6 x10_4/ul, a Ret (3 h) of 8.9% and a WBC (3 h) of 71.5 x10_2/uL. For the same compound, the KIDNEY_L (3 h) was 0.9 g, the KIDNEY_R (3 h) was 0.9 g and the KIDNEY_TOTAL (3 h) was 1.8 g. For the same compound, the LIVER (3 h) was 9.5 g, the A/G (3 h) was 1.4 and the ALP (3 h) was 1720.6 IU/L. The ALT (3 h) was 40.8 IU/L, the AST (3 h) was 76.4 IU/L and the BUN (3 h) was 13.2 mg/dL. The CRE (3 h) was 0.2 mg/dL, the Ca (3 h) was 10.4 mg/dL and the Cl (3 h) was 106 meq/L. The DBIL (3 h) was 0 mg/dL, the GLC (3 h) was 169.4 mg/dL and the IP (3 h) was 9.2 mg/dL. The K (3 h) was 4.2 meq/L, the LDH (3 h) was 228.2 IU/L and the Na (3 h) was 142 meq/L. The PL (3 h) was 127.6 mg/dL, the RALB (3 h) was 3.1 g/dL and the TBIL (3 h) was 0.01 mg/dL. The TC (3 h) was 71.2 mg/dL, the TG (3 h) was 78.8 mg/dL and the TP (3 h) was 5.3 g/dL. For the same compound, the gamma-GTP (3 h) was 1 IU/L, the TERMINAL_BW (6 h) was 211.5 g and the APTT (6 h) was 22.7 s. It also gave a Bas (6 h) of 0%, an Eos (6 h) of 1% and a Fbg (6 h) of 309.8 mg/dL. The Hb (6 h) was 13.7 g/dL, the Ht (6 h) was 39.8% and the Lym (6 h) was 78.6%. The MCH (6 h) was 20.8 pg, the MCHC (6 h) was 34.4% and the MCV (6 h) was 60.7 fL. It also gave a Mono (6 h) of 2.6%, a Neu (6 h) of 17.2% and a PT (6 h) of 16.2 s. For the same compound, the Plat (6 h) was 128.2 x10_4/uL, the RBC (6 h) was 657.2 x10_4/ul and the Ret (6 h) was 8.4%. It also gave a WBC (6 h) of 94.1 x10_2/uL, a KIDNEY_L (6 h) of 0.9 g and a KIDNEY_R (6 h) of 1 g. It also gave a KIDNEY_TOTAL (6 h) of 1.9 g, an LIVER (6 h) of 9.6 g and an A/G (6 h) of 1.3. The ALP (6 h) was 1398.4 IU/L, the ALT (6 h) was 39.2 IU/L and the AST (6 h) was 72.8 IU/L. It also gave a BUN (6 h) of 11.2 mg/dL, a CRE (6 h) of 0.1 mg/dL and a Ca (6 h) of 10.5 mg/dL. For the same compound, the Cl (6 h) was 106.4 meq/L, the DBIL (6 h) was 0 mg/dL and the GLC (6 h) was 173 mg/dL. For the same compound, the IP (6 h) was 9.6 mg/dL, the K (6 h) was 4.4 meq/L and the LDH (6 h) was 273.4 IU/L. The Na (6 h) was 141.8 meq/L, the PL (6 h) was 137.4 mg/dL and the RALB (6 h) was 3 g/dL. It also gave a TBIL (6 h) of 0.018 mg/dL, a TC (6 h) of 73 mg/dL and a TG (6 h) of 66 mg/dL. It also gave a TP (6 h) of 5.4 g/dL, a gamma-GTP (6 h) of 1 IU/L and a TERMINAL_BW (9 h) of 210 g. It also gave an APTT (9 h) of 20.9 s, a Bas (9 h) of 0% and an Eos (9 h) of 0.8%. The Fbg (9 h) was 301.6 mg/dL, the Hb (9 h) was 13.2 g/dL and the Ht (9 h) was 38.3%. The Lym (9 h) was 79%, the MCH (9 h) was 21.2 pg and the MCHC (9 h) was 34.4%. It also gave an MCV (9 h) of 61.8 fL, a Mono (9 h) of 1.8% and a Neu (9 h) of 18%. The PT (9 h) was 16.3 s, the Plat (9 h) was 122.7 x10_4/uL and the RBC (9 h) was 620.2 x10_4/ul. It also gave a Ret (9 h) of 9%, a WBC (9 h) of 63.3 x10_2/uL and a KIDNEY_L (9 h) of 1 g. It also gave a KIDNEY_R (9 h) of 1 g, a KIDNEY_TOTAL (9 h) of 2 g and an LIVER (9 h) of 9.4 g. It also gave an A/G (9 h) of 1.4, an ALP (9 h) of 1227.2 IU/L and an ALT (9 h) of 36.8 IU/L. It also gave an AST (9 h) of 70.8 IU/L, a BUN (9 h) of 9.6 mg/dL and a CRE (9 h) of 0.1 mg/dL. The Ca (9 h) was 10.7 mg/dL, the Cl (9 h) was 105.6 meq/L and the DBIL (9 h) was 0.006 mg/dL. The GLC (9 h) was 178 mg/dL, the IP (9 h) was 10.2 mg/dL and the K (9 h) was 4.3 meq/L. For the same compound, the LDH (9 h) was 198.2 IU/L, the Na (9 h) was 142.2 meq/L and the PL (9 h) was 119.4 mg/dL. It also gave an RALB (9 h) of 3.1 g/dL, a TBIL (9 h) of 0.022 mg/dL and a TC (9 h) of 64 mg/dL. It also gave a TG (9 h) of 40.8 mg/dL, a TP (9 h) of 5.4 g/dL and a gamma-GTP (9 h) of 1 IU/L. For the same compound, the TERMINAL_BW (24 h) was 212.6 g, the APTT (24 h) was 20.5 s and the Bas (24 h) was 0%. For the same compound, the Eos (24 h) was 0.8%, the Fbg (24 h) was 302.4 mg/dL and the Hb (24 h) was 13.9 g/dL. For the same compound, the Ht (24 h) was 40.3%, the Lym (24 h) was 79.4% and the MCH (24 h) was 21.1 pg. The MCHC (24 h) was 34.5%, the MCV (24 h) was 61.3 fL and the Mono (24 h) was 3%. For the same compound, the Neu (24 h) was 16.2%, the PT (24 h) was 16.1 s and the Plat (24 h) was 123.3 x10_4/uL. For the same compound, the RBC (24 h) was 658.2 x10_4/ul, the Ret (24 h) was 7% and the WBC (24 h) was 70.1 x10_2/uL. For the same compound, the KIDNEY_L (24 h) was 1 g, the KIDNEY_R (24 h) was 1 g and the KIDNEY_TOTAL (24 h) was 1.9 g. The LIVER (24 h) was 10.4 g, the A/G (24 h) was 1.4 and the ALP (24 h) was 1607.2 IU/L. For the same compound, the ALT (24 h) was 47.8 IU/L, the AST (24 h) was 75 IU/L and the BUN (24 h) was 15.8 mg/dL. The CRE (24 h) was 0.2 mg/dL, the Ca (24 h) was 10.5 mg/dL and the Cl (24 h) was 107 meq/L. It also gave a DBIL (24 h) of 0.002 mg/dL, a GLC (24 h) of 172 mg/dL and an IP (24 h) of 7.8 mg/dL. For the same compound, the K (24 h) was 4.3 meq/L, the LDH (24 h) was 182 IU/L and the Na (24 h) was 142.2 meq/L. The PL (24 h) was 182.4 mg/dL, the RALB (24 h) was 3.2 g/dL and the TBIL (24 h) was 0.004 mg/dL. For the same compound, the TC (24 h) was 77 mg/dL, the TG (24 h) was 108 mg/dL and the TP (24 h) was 5.5 g/dL. It also gave a gamma-GTP (24 h) of 1 IU/L.
